# Results taken from article PMC12329412, “Study of the mass balance, biotransformation, and safety of [^14C]IBI351 in healthy Chinese subjects” (Journal of Biomedical Research, 2024).
# Experiments:
# [1] = Radioactive metabolite profiling in pooled plasma, urine and feces; assay type: in vivo, human; details: for Plasma (0–144 h) % of AUC (share of total plasma radioactivity exposure) / Plasma (0–144 h) Metabolite/parent drug (%): pooled plasma 0–144 h; for Plasma (0–144 h) Metabolite/parent drug (%): relative to the parent drug; for Feces+urine % of dose: sum of feces 0–192 h and urine 0–96 h; for Feces (0–192 h) % of dose: pooled feces 0–192 h
# Experimental: Moreover, four plasma samples at 1 h, 4 h, 48 h, and 96 h were obtained by mixing them in equal volumes. Urine samples were pooled across individuals at an equal volume to obtain one pooled sample within each time period of 0–24 h, 24–48 h, and 48–96 h. Fecal samples (0–192 h) were pooled at the same weight percentages across collection intervals for each subject. Moreover, fecal samples were pooled across individuals at an equal weight to obtain one pooled sample within each time period of 0–72 h, 72–120 h, and 120–192 h. Plasma, urine, and fecal homogenates were extracted and concentrated using organic solvents, and then the redissolved solutions were used for metabolite profile analysis. The plasma, urine, and fecal extracts were separated on HPLC columns, and the HPLC flow fractions were collected in Deepwell LumaPlateTM-96 plates at 15 s/fraction using an automatic fraction collector. The radioactivity of each fraction was quantified using a microplate detector with ARC® Convert and Evaluation software (3.0.2.379) and transformed to obtain the radioactive metabolite spectra. The radioactive metabolite spectra of each sample were integrated to acquire the peak area of each radioactive metabolite peak, the proportion of each spectral peak to the total radioactive intensity of the sample, and the proportion of the radioactivity of the major metabolites to the TRA in the corresponding blood, urine, and fecal samples. Therefore, the ratio of metabolites' concentrations to the total drug exposure (AUC) in the plasma and the ratio of each metabolite's level to the dose administered in the urine and feces were calculated. Liquid chromatography with low-energy radionuclide detection and mass spectrometry was used to identify the main metabolites in human plasma, urine, and fecal samples and to identify the possible biotransformation pathways of IBI351 in these samples.
# [2] = ref [11],[19]; cited from earlier work
Plasma (0–144 h) % of AUC (share of total plasma radioactivity exposure) [1],Plasma (0–144 h) Metabolite/parent drug (%) [1] [%],Feces+urine % of dose [1],Feces (0–192 h) % of dose [1],Urine (0–96 h) % of dose ([1]; pooled urine 0–96 h),SMILES,average time to reach Cmax [2] [h],plasma protein binding rate [2] [%],terminal elimination half-life [2] [h],volume of distribution [2] [L],grade of associated adverse events [2]
0.09 % of AUC,1.98,0.35 % of dose,–,–,CCC(=O)N1CCN2c3c(c(=O)n(-c4c(C)ccnc4C(C)C)c4nc(-c5c(O)cccc5F)c(Cl)cc34)N(C)C(=O)C2C1 (centres unmarked) [M618],–,–,–,–,–
–,5.95,2.70 % of dose,2.47 % of dose,–,Cc1ccnc(C(C)C)c1-n1c(=O)c2c(c3cc(Cl)c(-c4c(O)cccc4F)nc31)N1CCN(C(=O)C(O)CO)CC1C(=O)N2C (centres unmarked) [M650],–,–,–,–,–
6.17 % of AUC,135.90,45.36 % of dose,39.87 % of dose,5.49 % of dose,Cc1ccnc(C(C)C)c1-n1c(=O)c2c(c3cc(Cl)c(-c4c(O)cccc4F)nc31)N1CCN(C(=O)CCSCC(N)C(=O)O)CC1C(=O)N2C (centres unmarked) [M737],–,–,–,–,–
0.05 % of AUC,1.10,2.70 % of dose,2.59 % of dose,–,CC(=O)NC(CSCCC(=O)N1CCN2c3c(c(=O)n(-c4c(C)ccnc4C(C)C)c4nc(-c5c(O)cccc5F)c(Cl)cc34)N(C)C(=O)C2C1)C(=O)O (centres unmarked) [M779],–,–,–,–,–
–,–,–,–,–,C=C(F)C(=O)N1CCN(c2nc(OC[C@@H]3CCCN3C)nc3c2CCN(c2cccc4cccc(Cl)c24)C3)C[C@@H]1CC#N [adagrasib],6,98,23,942,–
–,–,–,–,–,C=CC(=O)N1CCN(c2nc(=O)n(-c3c(C)ccnc3C(C)C)c3nc(-c4c(O)cccc4F)c(F)cc23)[C@@H](C)C1 [sotorasib],1,–,5,211,≥ 3
